Reference: article PMC6037002, “Drug targeting to decrease cardiotoxicity – determination of the cytotoxic effect of GnRH-based conjugates containing doxorubicin, daunorubicin and methotrexate on human cardiomyocytes and endothelial cells” (Beilstein Journal of Organic Chemistry, 2018)
Read-outs that look alike come from different tables or passages of the source.

Experiments:
[1] = tested on: MCF-7 human breast adenocarcinoma cells; details: MTT assay; cited from earlier work
Description: (§1) Table 1 Comparative study of cytotoxic effects and cardiotoxicity elicited by GnRH-based antitumor compounds (1–15) and reference substances (AN-152, Dox, Dau, Mtx). IC50 values show antitumor cytotoxic characteristics of the conjugates in human breast cancer (MCF-7), human colorectal adenocarcinoma (HT-29) and human acute monocytic leukemia (MM6) derived cell lines as representative tumor cells.

[2] = tested on: human acute monocytic leukemia (MonoMac6) cells; details: cited from earlier work
Description: as §1

[3] = tested on: HT-29 human colon adenocarcinoma cells; details: MTT assay; cited from earlier work
Description: as §1

[4] = tested on: primary human cardiac myocytes (HCM); details: HCM, three parallels; for delta slope (DS), short-term: 0–2 h; for delta slope (DS), long-term: 0–72 h
[5] = tested on: human umbilical vein endothelial cells (HUVEC); assay: Impedimetric measurement (xCELLigence SP), delta slope, HUVEC; details: HUVEC, three parallels; for delta slope (DS), short-term: 0–2 h; for delta slope (DS), long-term: 0–72 h

Q: What does the source list for `COc1cccc2c1C(=O)c1c(O)c3c(c(O)c1C2=O)C[C@@](O)(C(C)=O)C[C@@H]3O[C@H]1C[C@H](N)[C@H](O)[C@H](C)O1` [daunorubicin]?
A: IC50 [1]: 400 ± 100 nM; IC50 [2]: 0.08 ± 0.1 nM; IC50 [3]: 300 ± 200 nM; delta slope (DS), short-term ([4]; Table S1b, 10^-6 mol/L): 0.031; delta slope (DS), short-term ([4]; Table S1b, 10^-7 mol/L): -0.001; delta slope (DS), short-term ([4]; Table S1b, 10^-8 mol/L): 0.001; delta slope (DS), short-term ([4]; Table S1b, 10^-9 mol/L): -0.001; delta slope (DS), short-term ([4]; Table S1b, 10^-10 mol/L): -0.001; delta slope (DS), short-term ([4]; Table S1b, 10^-11 mol/L): -0.001; delta slope (DS), short-term ([4]; Table S1b, 10^-12 mol/L): -0.001; delta slope (DS), long-term ([4]; Table S1b, 10^-6 mol/L): −0.019; delta slope (DS), long-term ([4]; Table S1b, 10^-6 mol/L, listed as Daunorubicin): -0.019; delta slope (DS), long-term ([4]; Table S1b, 10^-7 mol/L): −0.007; delta slope (DS), long-term ([4]; Table S1b, 10^-7 mol/L, listed as Daunorubicin): -0.007; delta slope (DS), long-term ([4]; Table S1b, 10^-8 mol/L): -0.001; delta slope (DS), long-term ([4]; Table S1b, 10^-9 mol/L): -0.001; delta slope (DS), long-term ([4]; Table S1b, 10^-10 mol/L): -0.001; delta slope (DS), long-term ([4]; Table S1b, 10^-11 mol/L): -0.001; delta slope (DS), long-term ([4]; Table S1b, 10^-12 mol/L): -0.001; delta slope (DS), short-term ([4]; Table S3b, 10^-6 mol/L): 0.028; delta slope (DS), short-term ([4]; Table S3b, 10^-8 mol/L): -0.001; delta slope (DS), long-term ([4]; Table S3b, 10^-6 mol/L): -0.021; delta slope (DS), long-term ([4]; Table S3b, 10^-7 mol/L): -0.006; delta slope (DS), long-term ([4]; Table S3b, 10^-8 mol/L): -0.001; delta slope (DS), short-term ([4]; Table S4b, 10^-6 mol/L): 0.030; delta slope (DS), short-term ([4]; Table S4b, 10^-7 mol/L): -0.009; delta slope (DS), short-term ([4]; Table S4b, 10^-8 mol/L): -0.001; delta slope (DS), long-term ([4]; Table S4b, 10^-6 mol/L): -0.024; delta slope (DS), long-term ([4]; Table S4b, 10^-7 mol/L): -0.009; delta slope (DS), long-term ([4]; Table S4b, 10^-8 mol/L): -0.001; delta slope (DS), short-term ([4]; Table S5b, 10^-8 mol/L): -0.001; delta slope (DS), long-term ([4]; Table S5b, 10^-8 mol/L): -0.001; delta slope (DS), short-term ([5]; Table S1a, 10^-6 mol/L): 0.047; delta slope (DS), short-term ([5]; Table S1a, 10^-7 mol/L): 0.055; delta slope (DS), short-term ([5]; Table S1a, 10^-8 mol/L): 0.018; delta slope (DS), short-term ([5]; Table S1a, 10^-9 mol/L): -0.008; delta slope (DS), short-term ([5]; Table S1a, 10^-10 mol/L): -0.008; delta slope (DS), short-term ([5]; Table S1a, 10^-11 mol/L): 0.008; delta slope (DS), short-term ([5]; Table S1a, 10^-12 mol/L): -0.005; delta slope (DS), long-term ([5]; Table S1a, 10^-6 mol/L): −0.019; delta slope (DS), long-term ([5]; Table S1a, 10^-6 mol/L, listed as Daunorubicin): -0.019; delta slope (DS), long-term ([5]; Table S1a, 10^-7 mol/L): −0.007; delta slope (DS), long-term ([5]; Table S1a, 10^-7 mol/L, listed as Daunorubicin): -0.007; delta slope (DS), long-term ([5]; Table S1a, 10^-8 mol/L): -0.001; delta slope (DS), long-term ([5]; Table S1a, 10^-9 mol/L): -0.00113; delta slope (DS), long-term ([5]; Table S1a, 10^-10 mol/L): 0.001; delta slope (DS), long-term ([5]; Table S1a, 10^-11 mol/L): 0.002; delta slope (DS), long-term ([5]; Table S1a, 10^-12 mol/L): -0.001; delta slope (DS), short-term ([5]; Table S3a, 10^-6 mol/L): 0.003; delta slope (DS), short-term ([5]; Table S3a, 10^-7 mol/L): -0.002; delta slope (DS), short-term ([5]; Table S3a, 10^-8 mol/L): -0.008; delta slope (DS), long-term ([5]; Table S3a, 10^-6 mol/L): -0.010; delta slope (DS), long-term ([5]; Table S3a, 10^-7 mol/L): 0.001; delta slope (DS), short-term ([5]; Table S4a, 10^-6 mol/L): 0.009; delta slope (DS), short-term ([5]; Table S4a, 10^-7 mol/L): 0.016; delta slope (DS), short-term ([5]; Table S4a, 10^-8 mol/L): 0.005; delta slope (DS), long-term ([5]; Table S4a, 10^-6 mol/L): -0.058; delta slope (DS), long-term ([5]; Table S4a, 10^-7 mol/L): 0.004; delta slope (DS), long-term ([5]; Table S4a, 10^-8 mol/L): 0.006
